What was measured:
Assay in all cases: relative viability (nuclei count vs DMSO), 5 days (fraction); higher = more cells survive
Decitabine + Bortezomib = compound: Nc1ncn([C@H]2C[C@H](O)[C@@H](CO)O2)c(=O)n1 [Decitabine] + CC(C)C[C@H](NC(=O)[C@H](Cc1ccccc1)NC(=O)c1cnccn1)B(O)O [Bortezomib] (partner 0.002 µM)
In short: (§1)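 Relative viability divides the nuclei count in treated wells by that in vehicle wells. Lung cancer cell lines were seeded in 1536-well plates, dosed by pin tool the next day, and fixed and stained after 5 days in one step with final 0.05% Triton X-100, 1% formaldehyde and 1 ug/ml Hoechst. Dosing was a single drug or a fixed anchor-drug dose plus five library-drug doses (not always all listed) in √10 steps, and values are medians of duplicate plates imaged at 4×.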

Decitabine + Luminespib = compound: Nc1ncn([C@H]2C[C@H](O)[C@@H](CO)O2)c(=O)n1 [Decitabine] + CCNC(=O)c1noc(-c2cc(C(C)C)c(O)cc2O)c1-c1ccc(CN2CCOCC2)cc1 [Luminespib] (partner 0.01 µM)
In short: as §1

[1] = compound: O=C(C[C@H]1NCCC[C@@H]1O)Cn1cnc2cc(Br)c(Cl)cc2c1=O (racemic) [Halofuginone] + Nc1ncn([C@H]2C[C@H](O)[C@@H](CO)O2)c(=O)n1 [Decitabine] (partner 2 µM)
In short: as §1

Halofuginone + Olaparib = compound: O=C(C[C@H]1NCCC[C@@H]1O)Cn1cnc2cc(Br)c(Cl)cc2c1=O (racemic) [Halofuginone] + O=C(c1cc(Cc2n[nH]c(=O)c3ccccc23)ccc1F)N1CCN(C(=O)C2CC2)CC1 [Olaparib] (partner 8 µM)
In short: as §1

| Cell Line | relative viability (Decitabine + Bortezomib; first compound 0.04 µM) | relative viability (Decitabine + Bortezomib; first compound 0.1265 µM) | relative viability (Decitabine + Bortezomib; first compound 0.4 µM) | relative viability (Decitabine + Bortezomib; first compound 1.265 µM) | relative viability (Decitabine + Bortezomib; first compound 4 µM) | relative viability (Decitabine + Luminespib; first compound 0.04 µM) | relative viability (Decitabine + Luminespib; first compound 0.1265 µM) | relative viability (Decitabine + Luminespib; first compound 0.4 µM) | relative viability (Decitabine + Luminespib; first compound 1.265 µM) | relative viability (Decitabine + Luminespib; first compound 4 µM) | relative viability ([1]; first compound 0.001 µM) | relative viability ([1]; first compound 0.003162 µM) | relative viability ([1]; first compound 0.01 µM) | relative viability ([1]; first compound 0.03162 µM) | relative viability ([1]; first compound 0.1 µM) | relative viability (Halofuginone + Olaparib; first compound 0.001 µM) | relative viability (Halofuginone + Olaparib; first compound 0.003162 µM) | relative viability (Halofuginone + Olaparib; first compound 0.01 µM) | relative viability (Halofuginone + Olaparib; first compound 0.03162 µM) | relative viability (Halofuginone + Olaparib; first compound 0.1 µM) |
| --- | --- | --- | --- | --- | --- | --- | --- | --- | --- | --- | --- | --- | --- | --- | --- | --- | --- | --- | --- | --- |
| NCI-H23 | 0.571 | 0.493 | 0.307 | 0.216 | 0.233 | 0.215 | 0.213 | 0.202 | 0.199 | 0.203 | 0.333 | 0.314 | 0.313 | 0.346 | 0.273 | 0.409 | 0.291 | 0.326 | 0.271 | 0.223 |
| NCI-H1355 | 0.826 | 0.583 | 0.517 | 0.305 | 0.297 | 0.538 | 0.483 | 0.454 | 0.298 | 0.258 | 0.401 | 0.332 | 0.359 | 0.351 | 0.385 | 0.785 | 0.805 | 0.611 | 0.754 | 0.7 |
| COR-L23 | 0.695 | 0.703 | 0.42 | 0.316 | 0.234 | 0.331 | 0.402 | 0.298 | 0.222 | 0.148 | 0.518 | 0.511 | 0.421 | 0.465 | 0.217 | 0.349 | 0.348 | 0.346 | 0.292 | 0.171 |
| NCI-H2023 | 0.628 | 0.61 | 0.206 | 0.206 | 0.155 | 0.317 | 0.386 | 0.153 | 0.138 | 0.14 | 0.234 | 0.232 | 0.213 | 0.182 | 0.0828 | 0.509 | 0.565 | 0.405 | 0.239 | 0.0514 |
| A-427 | 0.769 | 0.571 | 0.247 | 0.271 | 0.242 | 0.65 | 0.466 | 0.303 | 0.262 | 0.227 | 0.626 | 0.596 | 0.541 | 0.564 | 0.52 | 0.826 | 0.695 | 0.77 | 0.704 | 0.597 |
| NCI-H596 | 1.02 | 0.873 | 0.845 | 0.847 | 0.855 | 0.9 | 1.01 | – | 0.696 | 0.739 | 1.01 | 0.961 | 1.09 | 1.01 | 0.775 | 0.756 | 0.737 | 0.655 | 0.752 | 0.549 |
| LU99A | 1.06 | 1.26 | 1.31 | 0.989 | 0.949 | 0.248 | 0.24 | 0.318 | 0.251 | 0.24 | 0.783 | 1.01 | 0.846 | 0.769 | 0.879 | 0.268 | 0.257 | 0.25 | 0.248 | 0.286 |
| NCI-H2009 | 0.765 | 0.571 | 0.301 | 0.305 | 0.243 | 0.929 | 0.68 | 0.54 | 0.328 | 0.348 | 0.343 | 0.332 | 0.403 | 0.415 | 0.308 | 0.744 | 0.664 | 0.66 | 0.706 | 0.541 |
